Reference: US20090220490A1, “Compositions and Assays for Inhibiting HCV Infection” (priority 2006, published 2009)
“Also recorded” adds a separate entry of the source. Where a SMILES comes first, the peptide text is derived from it. The star is where a group is joined. FITC = O=C1OC2(c3ccc(O)cc3Oc3cc(O)ccc32)c2ccc(NC(=S)*)cc21

Tests used:
Assay type in all cases: cell-based
HCV genotype 1 = test: HCV replication (HCV RNA expression) in serum-derived HCV-infected human hepatocyte cultures
Description: (§1) Sera from 25 HCV-infected patients and 3 control subjects were obtained at the VA San Diego Healthcare System Clinical Laboratory. The subject population included individuals with chronic HCV infection, viral load>200,000 IU/ml and genotypes 1 (N: 15), 2 (N: 3), 3 (N: 4), or 4 (N: 3), but negative for Hepatitis A and B, CMV and HIV. Control sera were obtained from subjects negative for Hepatitis A, B and C, CMV and HIV. In different experiments, the inoculums fluctuated between 3,728 and 68,000 HCV viral particles.
(§2) The hepatocytes were cultured for serum-derived HCV infection under the following conditions: 1) the matrix was rat-tail collagen (BD); 2) the collagen matrix was prepared within 24 hr of hepatocyte plating, at a concentration of 50 μg/ml or greater; 3) the culture plates were coated with polylysine; 4) the rinsing of the matrix was minimal; 5) the suspended hepatocytes were allowed to attach in 20% fetal calf serum for not more than 18 hr; 6) the hepatocyte-specific media was given for at least 24 hr prior to the HCV infection; 7) the hepatocytes were >85% confluent until the time of infection; 8) hepatocyte cultures with >5% apoptosis by annexin-V assays and/or increases>3-fold in ALT were discarded; and 9) hepatocyte media was added every 48 hr.
(§3) Total RNA was isolated from HCV infected primary human hepatocytes using the Ultraspec TM-II RNA kit from Biotecx Inc. (Texas) following the manufacturers protocol. The cDNA synthesis was performed using Stratascript RT MMuLV RNAse H free and Stratascript RT buffer (Stratagene), per manufacturers protocol, using:
(§4) PCR was performed on the cDNA using the cDNA reaction mixture with Qiagen's HotStar High Fidelity polymerase. Amplicons were run on 2% TBE agarose gels and imaged on a KODAK Imaging station.

HCV genotype 3 = test: as above; settings: peptide 90 μM (text: picomolar), treated 4 hr after the HCV infection (FIG. 13F)
Description: as §1, §2, §3, §4

HCV genotype 4 = test: as above; settings: peptide 90 μM (text: picomolar), treated 4 hr after the HCV infection (FIG. 13F)
Description: as §1, §2, §3, §4

[1] = system: endogenous AP-50 phosphorylation on Thr156; test: confocal microscopy of AP-50 phosphoT156 in HCV-infected human hepatocyte cultures; settings: HCV genotype 1-infected human hepatocyte cultures, 72 hr, epitope specific antibodies (FIG. 13D)
Experimental: (§5) Fluorescent labels were observed using a triple-channel fluorescence microscope or a confocal microscope. Fluorochromes utilized included TOPRO-3 (blue), Alexa 488 (green) and Alexa 594 (red) (Molecular Probes). The percentage of HCV infected hepatocytes was determined by confocal microscopy using HCV E2 and core specific antibodies (Buck, et al., Mol. Cell. 8, 807 (2001); Rudel et al., Science 276, 1571 (1997). AP-50 and AP-50-phosphoT^157 were detected with specific antibodies (Zhang et al., Traffic 6, 1103 (2005); Smythe, Nature 431, 641 (2004)). At least 100 cells were analyzed per experimental point (Buck et al. EMBO J 20, 6712 (2001)). The nuclear morphology were analyzed by staining cells with TOPRO-3 ([…]). Two observers analyzed each immunofluorescent study.
(§6) Primary hepatocytes were fixed with 50/50 acetone/methanol at −20° C. for 20 minutes and allowed to air dry at room temperature. Blocking of non-specific epitopes was done with PBS+3% BSA for 30 minutes at room temperature. Primary antibodies were used at 1:100 dilutions in PBS+3% BSA, for 1 hour at room temperature washes were done with PBS. […] At least 100 cells were analyzed per experimental point. We analyzed the nuclear morphology by staining cells with TO-PRO-3 (Molecular Probes). […]

human hepatocytes = test: cell toxicity by release of lactic dehydrogenase (LDH) into the medium
Experimental: Toxicity of AP-50 peptides to human hepatocyte cultures was determined by measuring lactic dehydrogenase (Sigma) in the medium.

[2] = system: HCV-infected human hepatocytes; test: confocal microscopy of FITC-labelled peptide: cell entry and association with HCV E2
Experimental: as §5, §6

In the case of CC(C)[C@H](NC(=O)[C@H](CCC(N)=O)NC(=O)[C@H](CCCNC(=N)N)NC(=O)[C@H](CCCNC(=N)N)NC(=O)[C@H](CCCNC(=N)N)NC(=O)[C@H](CCC(N)=O)NC(=O)[C@H](CCCNC(=N)N)NC(=O)[C@H](CCCNC(=N)N)NC(=O)[C@H](CCCCN)NC(=O)[C@H](CCCCN)NC(=O)[C@H](CCCNC(=N)N)NC(=O)CNC(=O)[C@H](Cc1ccc(O)cc1)NC(=O)CNC(=O)CNC(=O)CNC(=O)CNC(=S)Nc1ccc2c(c1)C(=O)OC21c2ccc(O)cc2Oc2cc(O)ccc21)C(=O)N[C@@H](C)C(=O)NCC(=O)N[C@@H](CCC(N)=O)C(=O)O [AP-50 peptide] ({FITC}-GGGGYGRKKRRQRRRQVAGQ-OH; N-terminus and C-terminus assumed), the “HCV replication, detected by expression of HCV RNA” value (HCV genotype 1; peptide 90 pM, 72 hr, given at time zero of the infection (FIG. 13E)) is reported as “blocked HCV replication; also recorded: inhibited HCV replication”, the “HCV replication, detected by expression of HCV RNA at 72 hr” value (from here on “HCV replication, detected … at 72 hr”) (HCV genotype 1; peptide 90 μM (text: picomolar), treated 4 hr after the HCV infection (FIG. 13F)) is reported as “inhibited HCV replication” and the “HCV replication, detected … at 72 hr” value (HCV genotype 3) is reported as “inhibited HCV replication”. For the same compound, the “HCV replication, detected … at 72 hr” value (HCV genotype 4) was “inhibited HCV replication”, the “phosphorylation of endogenous AP-50 on Thr156” value [1] was “inhibited the phosphorylation; also recorded: blocked phosphorylation” and the “LDH values / viability of HCV-infected hepatocytes treated with peptide” value (human hepatocytes; human hepatocytes infected with HCV genotypes 1, 3 or 4, 72 hr, relative to control (FIG. 14)) was “improving the viability; also recorded: normalized”. For the same compound, the “cellular toxicity (LDH release into the medium)” value (human hepatocytes; human hepatocytes treated with peptide for 72 hr (FIG. 14)) was “not toxic”, the “association with HCV E2 in cells (confocal microscopy, merge)” value ([2]; HCV-infected human hepatocytes, 72 hr (FIG. 13B)) was “associated with HCV E2” and the “cell permeability (intracellular FITC fluorescence)” value ([2]; human hepatocytes, 72 hr, HCV genotype 1 (FIG. 13B)) was “cell permeable; also recorded: intracellular”.
